Assay: xn = mol fraction of the nth substance listed

CCCC(C)O (configuration not stated) + CC(=O)N(C)C
viscosity [mPa·s], 100 kPa
Details	298.15 K	313.15 K
x2 = 0.0565	2.917	1.821
x2 = 0.1029	2.592	1.693
x2 = 0.2137	2.057	1.432
x2 = 0.3057	1.757	1.276
x2 = 0.409	1.528	1.145
x2 = 0.5031	1.387	1.053
x2 = 0.6045	1.255	0.971
x2 = 0.7015	1.158	0.904
x2 = 0.7996	1.068	0.842
x2 = 0.9005	0.987	0.784
x2 = 0.9581	0.943	–

CC[N+](CC)(CC)CC.[OH-] + CC(=O)N(C)C
viscosity [mPa·s], 101 kPa
Details	298.15 K	303.15 K	308.15 K	313.15 K
x1 = 0.0216	1.19	1.11	1.03	0.96
x1 = 0.0663	1.64	1.54	1.42	1.32
x1 = 0.1133	2.08	1.95	1.79	1.67
x1 = 0.1628	2.49	2.33	2.16	2.01
x1 = 0.215	2.83	2.66	2.49	2.33
x1 = 0.2422	2.99	2.81	2.64	2.47
x1 = 0.2988	3.28	3.09	2.89	2.72
x1 = 0.3899	3.63	3.43	3.23	3.04
x1 = 0.4894	3.89	3.69	3.47	3.27
x1 = 0.5986	4.08	3.87	3.63	3.44
x1 = 0.7188	4.24	4.04	3.77	3.59
x1 = 0.806	4.39	4.18	3.91	3.76
x1 = 0.8995	4.59	4.38	4.11	3.95

COCCO + CC(=O)N(C)C
viscosity [mPa·s], 101 kPa
Details	298.15 K	308.15 K	318.15 K
x2 = 0.0301	1.535	1.254	1.048
x2 = 0.06	1.528	1.25	1.046
x2 = 0.0871	1.52	1.247	1.045
x2 = 0.125	1.507	1.239	1.041
x2 = 0.1767	1.488	1.228	1.034
x2 = 0.225	1.466	1.214	1.026
x2 = 0.2902	1.432	1.192	1.011
x2 = 0.364	1.39	1.164	0.991
x2 = 0.4602	1.329	1.122	0.96
x2 = 0.52	1.289	1.092	0.938
x2 = 0.5611	1.26	1.07	0.921
x2 = 0.62	1.216	1.038	0.897
x2 = 0.6654	1.181	1.011	0.876
x2 = 0.725	1.135	0.977	0.849
x2 = 0.7732	1.099	0.949	0.827
x2 = 0.825	1.059	0.919	0.803
x2 = 0.8847	1.014	0.885	0.775
x2 = 0.9501	0.965	0.847	0.746

Source: the CheMixHub viscosity set
